Laboratory results reported in PubChem BioAssay (NCI).
Values joined by “and” are separate entries in the source; they are usually repeats but may differ in a detail not shown here. Identical values can stand only once.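 Five concentrations, 48 hours, 96-well plates. Here, GI50 denotes the concentration required for 50% inhibition of growth. TGI denotes the concentration required for complete inhibition of growth.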

What was measured:
Experiment in all cases: growth of human tumour cells (NCI), 48 h
U251 CNS = system: U251 CNS
A549 NSCLC = system: A549 NSCLC
SW-620 colon = system: SW-620 colon
SN12C renal = system: SN12C renal
UACC-62 melanoma = system: UACC-62 melanoma
HS 578T breast = system: HS 578T breast
MALME-3M melanoma = system: MALME-3M melanoma
SF-295 CNS = system: SF-295 CNS
SR leukemia = system: SR leukemia
NCI/ADR-RES ovarian = system: NCI/ADR-RES ovarian

Compound: O=C(O)C1(C(=O)O)CCC1.[NH2-].[NH2-].[Pt+2]
- GI50 (U251 CNS): 67.2 µM and 162 µM
- TGI (U251 CNS): 183 µM and > 250 µM
- GI50 (A549 NSCLC): 107 µM and 185 µM
- TGI (A549 NSCLC): 226 µM and > 250 µM
- GI50 (SW-620 colon): 162 µM and > 250 µM
- TGI (SW-620 colon): > 250 µM
- GI50 (SN12C renal): 154 µM and > 177 µM
- TGI (SN12C renal): 237 µM and > 250 µM
- GI50 (UACC-62 melanoma): 35.1 µM and > 114 µM
- TGI (UACC-62 melanoma): 140 µM and > 250 µM
- GI50 (HS 578T breast): 73.6 µM and 121 µM
- TGI (HS 578T breast): > 250 µM
- GI50 (MALME-3M melanoma): 72.2 µM and 107 µM
- TGI (MALME-3M melanoma): 180 µM and 192 µM
- GI50 (SF-295 CNS): 63.1 µM and 111 µM
- TGI (SF-295 CNS): 236 µM and > 250 µM
- GI50 (SR leukemia): 94.6 µM
- TGI (SR leukemia): > 230 µM
- GI50 (NCI/ADR-RES ovarian): 171 µM and 168 µM
- TGI (NCI/ADR-RES ovarian): 228 µM and > 250 µM

Compound: [N-]=[N+]=NCCCCCC(=O)OC(C(=O)c1ccccc1)c1cccc(OCC(=O)NCCOCCOCCNC(=O)CCCC[C@@H]2SC[C@@H]3NC(=O)N[C@@H]32)c1 (stereo not given in full)
- GI50 (U251 CNS): > 100 µM
- TGI (U251 CNS): > 100 µM
- GI50 (A549 NSCLC): > 100 µM
- TGI (A549 NSCLC): > 100 µM
- GI50 (SW-620 colon): > 100 µM
- TGI (SW-620 colon): > 100 µM
- GI50 (SN12C renal): > 100 µM
- TGI (SN12C renal): > 100 µM
- GI50 (UACC-62 melanoma): > 100 µM
- TGI (UACC-62 melanoma): > 100 µM
- GI50 (HS 578T breast): > 100 µM
- TGI (HS 578T breast): > 100 µM
- GI50 (MALME-3M melanoma): > 100 µM
- TGI (MALME-3M melanoma): > 100 µM
- GI50 (SF-295 CNS): > 100 µM
- TGI (SF-295 CNS): > 100 µM
- GI50 (SR leukemia): 22.6 µM
- TGI (SR leukemia): 60 µM
- GI50 (NCI/ADR-RES ovarian): > 100 µM
- TGI (NCI/ADR-RES ovarian): > 100 µM

Compound: Cn1cnc([N+](=O)[O-])c1Sc1nc(N)nc2c1ncn2C1CC(O)C(CO)O1 (stereo not given)
- TGI (U251 CNS): > 100 µM
- TGI (A549 NSCLC): > 100 µM
- TGI (SW-620 colon): > 100 µM
- TGI (SN12C renal): > 100 µM
- TGI (UACC-62 melanoma): > 20.8 µM
- TGI (HS 578T breast): > 100 µM
- TGI (MALME-3M melanoma): > 100 µM
- TGI (SF-295 CNS): > 100 µM
- TGI (SR leukemia): 18.7 µM
- TGI (NCI/ADR-RES ovarian): > 100 µM

Compound: O=C(c1ccccc1)C(CN1CCCCC1)c1ccccc1 (stereo not given)
- GI50 (U251 CNS): 1.48 µM
- TGI (U251 CNS): 3.24 µM
- GI50 (A549 NSCLC): 16.1 µM
- TGI (A549 NSCLC): 43.8 µM
- GI50 (SW-620 colon): 0.583 µM
- TGI (SW-620 colon): 2.17 µM
- GI50 (SN12C renal): 1.79 µM
- TGI (SN12C renal): 3.8 µM
- GI50 (UACC-62 melanoma): 1.98 µM
- TGI (UACC-62 melanoma): 4.8 µM
- GI50 (HS 578T breast): 4.49 µM
- TGI (HS 578T breast): 33.2 µM
- GI50 (MALME-3M melanoma): 1.44 µM
- TGI (MALME-3M melanoma): 3.35 µM
- GI50 (SF-295 CNS): 4.85 µM
- TGI (SF-295 CNS): 17.5 µM
- GI50 (SR leukemia): 0.539 µM
- TGI (SR leukemia): 4.26 µM
- GI50 (NCI/ADR-RES ovarian): 1.27 µM
- TGI (NCI/ADR-RES ovarian): 2.9 µM

Compound: NCC1OC(n2cnc3c(N)ncnc32)CC1O (stereo not given)
- TGI (U251 CNS): > 100 µM
- TGI (A549 NSCLC): > 100 µM
- TGI (SW-620 colon): > 100 µM
- TGI (SN12C renal): > 100 µM
- TGI (UACC-62 melanoma): > 100 µM
- TGI (HS 578T breast): > 100 µM
- TGI (MALME-3M melanoma): > 100 µM
- TGI (SF-295 CNS): > 100 µM
- TGI (SR leukemia): > 100 µM
- TGI (NCI/ADR-RES ovarian): > 100 µM

Compound: NCCOCCOCCNc1nc(-c2ccccc2)nc(N2CCN(c3ccccn3)CC2)n1
- GI50 (U251 CNS): 12.1 µM
- TGI (U251 CNS): 26.3 µM
- GI50 (A549 NSCLC): 14.4 µM
- TGI (A549 NSCLC): 30.1 µM
- GI50 (SW-620 colon): 13.2 µM
- TGI (SW-620 colon): 28.4 µM
- GI50 (SN12C renal): 17.1 µM
- TGI (SN12C renal): 32.8 µM
- GI50 (UACC-62 melanoma): 6.76 µM
- TGI (UACC-62 melanoma): 19.4 µM
- GI50 (HS 578T breast): 15.4 µM
- TGI (HS 578T breast): 41 µM
- GI50 (MALME-3M melanoma): 11.3 µM
- TGI (MALME-3M melanoma): 26.2 µM
- GI50 (SF-295 CNS): 17.5 µM
- TGI (SF-295 CNS): 36 µM
- GI50 (SR leukemia): 1.62 µM
- TGI (SR leukemia): 4.64 µM
- GI50 (NCI/ADR-RES ovarian): 16 µM
- TGI (NCI/ADR-RES ovarian): 32.4 µM

Compound: Nc1c(C(=O)Nc2cccc(F)c2)sc2nc3c(cc12)C(=O)CCC3
- GI50 (U251 CNS): 0.488 µM
- TGI (U251 CNS): > 69 µM
- GI50 (A549 NSCLC): 0.378 µM
- TGI (A549 NSCLC): > 100 µM
- GI50 (SW-620 colon): 0.35 µM
- TGI (SW-620 colon): > 100 µM
- GI50 (SN12C renal): 0.743 µM
- TGI (SN12C renal): > 100 µM
- GI50 (UACC-62 melanoma): 0.491 µM
- TGI (UACC-62 melanoma): > 100 µM
- GI50 (HS 578T breast): 0.634 µM
- TGI (HS 578T breast): > 100 µM
- GI50 (MALME-3M melanoma): 0.377 µM
- TGI (MALME-3M melanoma): > 100 µM
- GI50 (SF-295 CNS): 0.245 µM
- TGI (SF-295 CNS): > 80 µM
- GI50 (SR leukemia): 0.481 µM
- TGI (SR leukemia): > 70.6 µM
- GI50 (NCI/ADR-RES ovarian): 0.487 µM
- TGI (NCI/ADR-RES ovarian): > 100 µM

Compound: CCOC(=O)c1cc2c(cc1Cl)SC(N(c1ccc(OC)cc1)S(=O)(=O)c1ccc(Cl)cc1)=NS2(=O)=O
- GI50 (U251 CNS): 29.1 µM
- TGI (U251 CNS): 88.4 µM
- GI50 (A549 NSCLC): 33.4 µM
- TGI (A549 NSCLC): > 100 µM
- GI50 (SW-620 colon): 27.6 µM
- TGI (SW-620 colon): 72.8 µM
- GI50 (SN12C renal): 31.8 µM
- TGI (SN12C renal): > 100 µM
- GI50 (UACC-62 melanoma): 34.6 µM
- TGI (UACC-62 melanoma): > 100 µM
- GI50 (HS 578T breast): 46.7 µM
- TGI (HS 578T breast): > 100 µM
- GI50 (MALME-3M melanoma): 28.1 µM
- TGI (MALME-3M melanoma): > 100 µM
- GI50 (SF-295 CNS): 54.9 µM
- TGI (SF-295 CNS): > 100 µM
- GI50 (SR leukemia): 24.8 µM
- TGI (SR leukemia): 98.6 µM
- GI50 (NCI/ADR-RES ovarian): 31.5 µM
- TGI (NCI/ADR-RES ovarian): 88.6 µM

Compound: C=C1CCC2C3(C)COC(c4ccccc4)OC3CCC2(C)C1/C=C/C1=CCOC1=O (stereo not given)
- GI50 (U251 CNS): 2.87 µM
- TGI (U251 CNS): 12.3 µM
- GI50 (A549 NSCLC): 6.87 µM
- TGI (A549 NSCLC): 48.1 µM
- GI50 (SW-620 colon): 2.96 µM
- TGI (SW-620 colon): 10 µM
- GI50 (SN12C renal): 3.82 µM
- TGI (SN12C renal): 15.9 µM
- GI50 (UACC-62 melanoma): 6.82 µM
- TGI (UACC-62 melanoma): 22.9 µM
- GI50 (HS 578T breast): 1.86 µM
- TGI (HS 578T breast): 8.61 µM
- GI50 (MALME-3M melanoma): 15.6 µM
- TGI (MALME-3M melanoma): 32.6 µM
- GI50 (SF-295 CNS): 14.1 µM
- TGI (SF-295 CNS): 51.9 µM
- GI50 (SR leukemia): 1.27 µM
- TGI (SR leukemia): 4.06 µM
- GI50 (NCI/ADR-RES ovarian): 3.17 µM
- TGI (NCI/ADR-RES ovarian): > 100 µM

Compound: Clc1ccc(-c2c3c(nn2-c2ccccn2)CCc2ccccc2-3)cc1Cl
- GI50 (U251 CNS): > 100 µM
- TGI (U251 CNS): > 100 µM
- GI50 (A549 NSCLC): > 100 µM
- TGI (A549 NSCLC): > 100 µM
- GI50 (SW-620 colon): > 100 µM
- TGI (SW-620 colon): > 100 µM
- GI50 (SN12C renal): > 100 µM
- TGI (SN12C renal): > 100 µM
- GI50 (UACC-62 melanoma): > 100 µM
- TGI (UACC-62 melanoma): > 100 µM
- GI50 (HS 578T breast): > 100 µM
- TGI (HS 578T breast): > 100 µM
- GI50 (MALME-3M melanoma): 47.9 µM
- TGI (MALME-3M melanoma): > 100 µM
- GI50 (SF-295 CNS): 95.2 µM
- TGI (SF-295 CNS): > 100 µM
- GI50 (SR leukemia): 78.1 µM
- TGI (SR leukemia): > 100 µM
- GI50 (NCI/ADR-RES ovarian): > 100 µM
- TGI (NCI/ADR-RES ovarian): > 100 µM
